# Experimental data published in patent publication US7951794B2, “Thiophene derivatives” (Actelion Pharmaceuticals Ltd., priority 2005, dated 2011).
# Key:
# [1] = molecular target: recombinant human S1P1 receptor (Homo sapiens, UniProt P21453); assay: GTPγS assay to determine EC50 values; type: biochemical; conditions: 35S-GTPγS binding, membrane preparations of CHO cells expressing recombinant human S1P1 receptor, pH 7.4
# Experimental: GTPγS binding assays are performed in 96 well microtiter plates (Nunc, 442587) in a final volume of 200 μl, using membrane preparations of CHO cells expressing recombinant human S1P1 receptor. Assay conditions are 20 mM Hepes (Fluka, 54461), 100 mM NaCl (Fluka, 71378), 5 mM MgCl2 (Fluka, 63064), 0.1% BSA (Calbiochem, 126609), 1 μM GDP (Sigma, G-7127), 2.5% DMSO (Fluka, 41644), […] ^35S-GTPγS (Amersham Biosciences, SJ1320). The pH is 7.4. Test compounds are dissolved and diluted in 100% DMSO and pre-incubated at room temperature for 30 min in 150 μl of the above assay buffer, in the absence of ^35S-GTPγS. After addition of 50 μl of ^35S-GTPγS, the assay is incubated for 1 h at room temperature.
# The assay is terminated by transfer of the reaction mixture to a Multiscreen plate (Millipore, MAHFC1H60) using a cell harvester from Packard Biosciences, and the plates are washed with ice-cold 10 mM Na2HPO4/NaH2PO4 (70%/30%), dried, sealed at the bottom and, after addition of 25 μl MicroScint20 (Packard Biosciences, order no. 6013621), sealed on the top. Membrane-bound ^35S-GTPγS is measured with a TopCount from Packard Biosciences.
# EC50 is the concentration of agonist inducing 50% of the maximal specific ^35S-GTPγS binding. Specific binding is determined by subtracting non-specific binding from maximal binding. Maximal binding is the amount of cpm bound to the Multiscreen plate in the presence of 10 μM of S1P. Non-specific binding is the amount of binding in the absence of an agonist in the assay.
# circulating lymphocytes = assay: Assessment of in vivo efficacy: circulating lymphocytes after oral administration; conditions: 3 h after oral administration of 10 mg/kg to normotensive male Wistar rats, compared to vehicle-treated group
# Experimental: The efficacy of the compounds of Formula (I) is assessed by measuring the circulating lymphocytes after oral administration of 3 to 30 mg/kg of a compound of Formula (I) to normotensive male Wistar rats. The animals are housed in climate-controlled conditions with a 12 h-light/dark cycle, and have free access to normal rat chow and drinking water. Blood is collected before and 3, 6 and 24 h after drug administration. Full blood is subjected to hematology using Advia Hematology system (Bayer Diagnostics, Zürich, Switzerland).
# All data are presented as mean±SEM. Statistical analyses are performed by analysis of variance (ANOVA) using Statistica (StatSoft) and the Student-Newman-Keuls procedure for multiple comparisons. The null hypothesis is rejected when p<0.05.
# recombinant human S1P1 receptor, sequence (P21453 whole entry): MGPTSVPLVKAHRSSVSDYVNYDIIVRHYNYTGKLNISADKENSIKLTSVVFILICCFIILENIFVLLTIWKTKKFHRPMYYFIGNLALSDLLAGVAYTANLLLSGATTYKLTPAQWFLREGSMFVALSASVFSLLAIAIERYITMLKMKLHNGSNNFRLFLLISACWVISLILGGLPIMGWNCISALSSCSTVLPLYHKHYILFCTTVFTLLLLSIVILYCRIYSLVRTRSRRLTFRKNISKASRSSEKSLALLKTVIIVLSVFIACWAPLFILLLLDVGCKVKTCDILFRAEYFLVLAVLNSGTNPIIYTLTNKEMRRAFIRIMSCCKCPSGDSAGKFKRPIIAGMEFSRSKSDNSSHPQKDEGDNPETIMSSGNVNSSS
SMILES,EC50 [1] [nM],Lymphocyte counts (circulating lymphocytes) [%]
"CCc1sc(C(=O)CCc2cc(C)c(OC[C@@H](O)CO)c(C)c2)cc1-c1ccccc1 [Example 10, 3-[4-((S)-2,3-dihydroxy-propoxy)-3,5-dimethyl-phenyl]-1-(5-ethyl-4-phenyl-thiophen-2-yl)-propan-1-one]",6.7,−48.5
"CCc1sc(C(=O)CCc2cc(C)c(CC(O)CO)c(C)c2)cc1-c1ccccc1 (stereo not shown) [Example 11, 3-[4-(2,3-dihydroxy-propyl)-3,5-dimethyl-phenyl]-1-(5-ethyl-4-phenyl-thiophen-2-yl)-propan-1-one]",18.3,–
"CCc1sc(C(=O)CCc2cc(C)c(OC[C@@H](O)CO)c(C)c2)cc1-c1ccccc1C [Example 20, 3-[4-((S)-2,3-dihydroxy-propoxy)-3,5-dimethyl-phenyl]-1-(5-ethyl-4-o-tolyl-thiophen-2-yl)-propan-1-one]",6.3,–
"CCCc1sc(C(=O)CCc2cc(C)c(OC[C@@H](O)CO)c(C)c2)cc1-c1ccccc1 [Example 24, 3-[4-((S)-2,3-dihydroxy-propoxy)-3,5-dimethyl-phenyl]-1-(4-phenyl-5-propyl-thiophen-2-yl)-propan-1-one]",16.4,–
CCc1ccccc1-c1cc(C(=O)CCc2cc(C)c(OC[C@@H](O)CO)c(C)c2)sc1CC [Example 31],9.3,–
CCc1sc(C(=O)CCc2cc(C)c(OC[C@@H](O)CO)c(C)c2)cc1-c1ccccc1OC [Example 50],11.5,–
